Data on 23 sequences can be found in US9360486B2, “Allergen fragments” (Biomay AG, priority 2007, dated 2016).

In the experiment the test system is Amb a 1-specific T cell lines (TCL). Description: T cell epitope mapping of Amb a 1.3: proliferation (3H-thymidine uptake) of TCL stimulated with synthetic peptides. Format: cell-based, human. Conditions: for No. positive patients SI > 3 / No. positive patients SI > 5 / % (positive patients SI > 3) / % (positive patients SI > 5): TCL from 48 ragweed pollen-allergic patients, peptide 5 μg/ml; for No. positive patients SI > 3 / No. positive patients SI > 5: 3H-thymidine uptake after 48 hrs; for No. positive patients SI > 3 / % (positive patients SI > 3): stimulation index > 3; for No. positive patients SI > 5 / % (positive patients SI > 5): stimulation index > 5; for T cell activating region recognized by % of patients: classes of prevalence referring to SI>5, 48 TCL. The text has this:
The T cell response to Amb a 1 was characterized in detail using the established in vitro culture system (Jahn-Schmid et al., J. Immunol. 169: 6005-11, 2002; Jahn-Schmid et al., J. Allergy Clin. Immunol., 115: 399-404, 2005). In total, 85 clinically well-defined patients (75 from Vienna/10 from Milano) with typical case history, positive skin prick test and CAP/RAST tests for ragweed extract were included.
Peripheral blood mononuclear cells (PBMC) were isolated from heparinized blood of allergic patients by Ficoll density gradient centrifugation. To generate allergen-specific T cell lines (TCL) and T cell clones (TCC), 1.5×10^6 PBMC were stimulated with optimal doses of ragweed or mugwort extract (4 μg/ml) or rAmb a 1.3 (10 μg/ml) in 24-well flat-bottomed culture plates (Costar, USA). After 5 days human rIL-2 (10 U/ml, Boehringer, Mannheim, Germany) were added and cultures were continued for additional 7 days. Then, T cell blasts were isolated by density centrifugation. The majority of T cell blasts was further expanded with IL-2 and irradiated PBMC. A small number of T cell blasts were used to establish monoclonal T cell cultures by limiting dilution: 0.3 T cells/well were seeded into 96 well round bottom plates (Nunclone) in the presence of 2×10^5 irradiated (60 Gy) PBMC, 0.25% v/v PHA (Gibco, USA) and rIL-2 (4 U/well) in the medium mentioned above. After 14-21 days, growing microcultures were expanded at weekly intervals with irradiated PBMC and rIL-2. The specificity of TCC was assessed in proliferation assays using irradiated allogeneic or HLA-matched PBMC or irradiated EBV-transformed allogeneic B-cells and 5 μg/ml Amb a 1.3. After 48 hours, cellular uptake of tritiated (^3H)-thymidine was performed to measure proliferation in counts per minute (cpm). When the stimulation index (SI; ratio between cpm obtained in cultures containing TCC plus autologous APC plus antigen, and cpm obtained in cultures containing TCC and APC alone) was >10, responses were considered as positive. Allergen-specific TCC were expanded by alternating turns of stimulation with autologous irradiated APC and allergen or with allogeneic feeder cells and rIL-2.
Amb a 1-specific TCL and TCC were used to identify T cell epitopes of Amb a 1.3. T cell cultures were stimulated with a panel of 121 synthetic 12-mer peptides and one 13-mer representing the C-terminal peptide of Amb a 1.3 (Pepset, Biotrend, Germany). Peptides had been synthesized according to the Amb a 1.3 amino acid sequence and overlapped for 9 amino acid residues with the neighbouring peptides (Table 1). Peptides were used at a concentration of 5 μg/ml for stimulation and proliferation of T cell cultures was determined after 48 hrs by ^3H-thymidine-uptake. Because of the frequently observed high background caused by auto-reactivity in TCL, the mean of the cpm observed with the ten least stimulating peptides (none of the peptides was toxic) was used as negative control in calculations of SI. Throughout this manuscript, a peptide comprised one T cell epitope when the stimulation index was at least 3.0.
T cell epitope mapping of Amb a 1.3 was performed evaluating 48 TCL from different patients ([…]), which had been initiated with ragweed extract (containing the natural allergen) or rAmb a 1.3 (Table 2). TCL induced with either ragweed extract or rAmb a 1.3 from the same individual recognized similar T cell epitopes (Table 2; FIG. 7). […] Therefore, their data were combined for further analysis (Table 3). Typical for many inhalant allergens, multiple T cell activating regions were detected in Amb a 1.3. The number of peptides recognized by T cells from a single individual ranged from 2 to maximum 60 peptides with a mean of 17.8 peptides (median=16/for SI>3; resp. 0-36/11.9/12 for SI>5) (see Table 3). In total, 26 relevant (i.e. recognized by ≧10% of patients studied) T cell activating regions comprising 12-18 aa were identified. […]

“FLAPDDQIKKNV (Amb a 1 fragment) [Peptide 97]”: the “reactivity with T cells isolated from allergic individuals” value (“reactivity with T cells isolated” below) is reported as “reactivity with T cells”, the “No. positive patients SI > 3” value was found to be 6, the “No. positive patients SI > 5” value amounted to 4 and the “% (positive patients SI > 3)” value worked out at 12.5%. Also, the “% (positive patients SI > 5)” value was determined as 8.3%.

With “FQVVNNNYDRWG (Amb a 1 fragment) [Peptide 87]”, the “reactivity with T cells isolated” value was “reactivity with T cells”, the “No. positive patients SI > 3” value is on record as 5, the “No. positive patients SI > 5” value was 2 and the “% (positive patients SI > 3)” value came out at 10.4%. Also, the “% (positive patients SI > 5)” value is reported as 4.2%.

Take “GAAESMAWNWRS (Amb a 1 fragment) [Peptide 103]”: the “No. positive patients SI > 3” value came out at 2, the “No. positive patients SI > 5” value was 1, the “% (positive patients SI > 3)” value was 4.2% and the “% (positive patients SI > 5)” value came out at 2.1%.

“GADDTHVQDKGM (Amb a 1 fragment) [Peptide 75]”: the “No. positive patients SI > 3” value was determined as 1, the “No. positive patients SI > 5” value was 1, the “% (positive patients SI > 3)” value is recorded as 2.1% and the “% (positive patients SI > 5)” value stood at 2.1%.

Consider “GDVYTVTSNLDD (Amb a 1 fragment) [Peptide 21]”, for which the “No. positive patients SI > 3” value worked out at 2, the “No. positive patients SI > 5” value amounted to 1, the “% (positive patients SI > 3)” value is given as 4.2% and the “% (positive patients SI > 5)” value is listed as 2.1%.

For the sequence “GEAAIKLTSSAG (Amb a 1 fragment) [Peptide 118]”, the “reactivity with T cells isolated” value is recorded as “reactivity with T cells”, the “No. positive patients SI > 3” value was determined as 10, the “No. positive patients SI > 5” value was 8 and the “% (positive patients SI > 3)” value was determined as 20.8%. Also, the “% (positive patients SI > 5)” value is given as 16.7%.

With “GEAAIKLTSSAGVLSCRP (Amb a 1 fragment) [Peptide 118-120]”, the “reactivity with T cells isolated” value is “reactivity with T cells” and the “T cell activating region recognized by % of patients” value is “recognized by 20.8%”.

Regarding “GKWGDVYTVTSN (Amb a 1 fragment) [Peptide 20]”, the “reactivity with T cells isolated” value is reported as “reactivity with T cells”, the “No. positive patients SI > 3” value came out at 9, the “No. positive patients SI > 5” value was found to be 7 and the “% (positive patients SI > 3)” value is given as 18.8%. For the same sequence, the “% (positive patients SI > 5)” value is reported as 14.6% and the “T cell activating region recognized by % of patients” value was “recognized by 14.6%”.

“GMIKSNDGPPIL (Amb a 1 fragment) [Peptide 52]”: the “T cell reactivity with samples from individuals suffering from ragweed pollen allergy” value is reported as “high T cell reactivity”, the “reactivity with T cells isolated” value is reported as “reactivity with T cells”, the “No. positive patients SI > 3” value came to 31 and the “No. positive patients SI > 5” value is listed as 27. Besides, the “% (positive patients SI > 3)” value came out at 64.6%, the “% (positive patients SI > 5)” value worked out at 56.3% and the “T cell activating region recognized by % of patients” value is listed as “recognized by 56.3%”.

Regarding “GNRFLAPDDQIK (Amb a 1 fragment) [Peptide 96]”, the “reactivity with T cells isolated” value is “reactivity with T cells”, the “No. positive patients SI > 3” value worked out at 5, the “No. positive patients SI > 5” value came out at 4 and the “% (positive patients SI > 3)” value is listed as 10.4%. Also, the “% (positive patients SI > 5)” value was 8.3%.

As for “GRGVKVEIINGG (Amb a 1 fragment) [Peptide 40]”, the “No. positive patients SI > 3” value is listed as 3, the “No. positive patients SI > 5” value worked out at 4, the “% (positive patients SI > 3)” value is 6.3% and the “% (positive patients SI > 5)” value was 8.3%.

Regarding “GSSQIWIDHCSL (Amb a 1 fragment) [Peptide 60]”, the “reactivity with T cells isolated” value is “reactivity with T cells”, the “No. positive patients SI > 3” value came to 30, the “No. positive patients SI > 5” value was determined as 28 and the “% (positive patients SI > 3)” value was determined as 62.5%. Moreover, the “% (positive patients SI > 5)” value is on record as 58.3%.

For the sequence “GSSQIWIDHCSLSKS (Amb a 1 fragment) [Peptide 60-61]”, the “reactivity with T cells isolated” value is on record as “reactivity with T cells”.

Regarding “GSTHVTISNCKF (Amb a 1 fragment) [Peptide 68]”, the “T cell reactivity with samples from individuals suffering from ragweed pollen allergy” value is given as “high T cell reactivity”, the “reactivity with T cells isolated” value is listed as “reactivity with T cells”, the “No. positive patients SI > 3” value was 20 and the “No. positive patients SI > 5” value was determined as 16. For the same sequence, the “% (positive patients SI > 3)” value amounted to 41.7%, the “% (positive patients SI > 5)” value is 33.3% and the “T cell activating region recognized by % of patients” value is “recognized by 33.3%”.

On to “GVGEILPSVNET (Amb a 1 fragment) [Peptide 2]”, for which the “No. positive patients SI > 3” value is 2, the “No. positive patients SI > 5” value is 1, the “% (positive patients SI > 3)” value is given as 4.2% and the “% (positive patients SI > 5)” value worked out at 2.1%.

As to “HVTISNCKFTQQ (Amb a 1 fragment) [Peptide 69]”, the “reactivity with T cells isolated” value is reported as “reactivity with T cells”, the “No. positive patients SI > 3” value is reported as 8, the “No. positive patients SI > 5” value amounted to 4 and the “% (positive patients SI > 3)” value stood at 16.7%. In addition, the “% (positive patients SI > 5)” value came out at 8.3%.

Consider “IDHCSLSKSFDG (Amb a 1 fragment) [Peptide 62]”, for which the “No. positive patients SI > 3” value was determined as 3, the “No. positive patients SI > 5” value is on record as 2, the “% (positive patients SI > 3)” value is 6.3% and the “% (positive patients SI > 5)” value worked out at 4.2%.

As for “IFVTSGSDPVLT (Amb a 1 fragment) [Peptide 110]”, the “reactivity with T cells isolated” value is “reactivity with T cells”, the “No. positive patients SI > 3” value worked out at 13, the “No. positive patients SI > 5” value amounted to 11 and the “% (positive patients SI > 3)” value was determined as 27.1%. Further, the “% (positive patients SI > 5)” value came to 22.9%.

For the sequence “IGGSSAPTILCQ (Amb a 1 fragment) [Peptide 92]”, the “No. positive patients SI > 3” value was 3, the “No. positive patients SI > 5” value was 2, the “% (positive patients SI > 3)” value is 6.3% and the “% (positive patients SI > 5)” value is recorded as 4.2%.

On to “IHDVKVLPGGMI (Amb a 1 fragment) [Peptide 49]”, for which the “No. positive patients SI > 3” value was 3, the “No. positive patients SI > 5” value is 2, the “% (positive patients SI > 3)” value was found to be 6.3% and the “% (positive patients SI > 5)” value was determined as 4.2%.

Turning to “IIFKNDMVINLN (Amb a 1 fragment) [Peptide 32]”, the “No. positive patients SI > 3” value was determined as 2, the “No. positive patients SI > 5” value stood at 1, the “% (positive patients SI > 3)” value was 4.2% and the “% (positive patients SI > 5)” value amounted to 2.1%.

Consider “IIHNINIHDVKV (Amb a 1 fragment) [Peptide 47]”, for which the “reactivity with T cells isolated” value was “reactivity with T cells”, the “No. positive patients SI > 3” value came to 14, the “No. positive patients SI > 5” value turned out to be 10 and the “% (positive patients SI > 3)” value is given as 29.2%. In addition, the “% (positive patients SI > 5)” value is 20.8%.

With “ILLGADDTHVQD (Amb a 1 fragment) [Peptide 74]”, the “No. positive patients SI > 3” value turned out to be 3, the “No. positive patients SI > 5” value is given as 1, the “% (positive patients SI > 3)” value stood at 6.3% and the “% (positive patients SI > 5)” value is 2.1%.
